# In patent US7754896B2, “Indol-alanine derivatives as selective S1P4-agonists” (Novartis AG, priority 2004, dated 2010):
# Biological target: T1, S1P5 (Homo sapiens, UniProt Q9H228)
# T1 construct: expressed in transfected cells
# Experiment: Calcium mobilization assay, CHO cells expressing S1P5
# Assay type: cell-based
# From the text: The human S1P5 (GI: 30171332 or GenBank™ accession number AY262689, TREMBL: Q9H228) is cloned by a PCR based method. Lung and spleen cDNA (marathon cDNA) is obtained from BD Biosciences Chlontech (BD Biosciences Chlontech, Palo Alto, Calif. 94303, USA); genomic DNA is isolated from HeLa cells using standard procedures. Following oligonucleotides are used for the PCR reaction: forward primer CACCATGGAGTCGGGGCTGCTGCG (−4 to 20, GenBank™ accession number AY262689) and reverse primer 5′-TCAGTCTGCAGCCGGTTCTGATACCAGAGTC (1197 to 1131, AY262689), the initiation of the translation (ATG) and the stop codon are underlined. […] The amplified product of around 1100 bp is analyzed by standard agarose gel-electrophoresis. […]
# CHO cells are plated in black Costar plate (96 or 384 well, 50,000 cells or 12,500 cells, respectively) in a MEM with FCS and cultured for 20-24 h at 37° C. in a CO2 incubator. […] After measuring the baseline for 40 sec, the agonist in HBSS is added and the fluorescence is measured at intervals of 2 sec for 3 to 5 min. […]
# T1 sequence (Q9H228 whole entry): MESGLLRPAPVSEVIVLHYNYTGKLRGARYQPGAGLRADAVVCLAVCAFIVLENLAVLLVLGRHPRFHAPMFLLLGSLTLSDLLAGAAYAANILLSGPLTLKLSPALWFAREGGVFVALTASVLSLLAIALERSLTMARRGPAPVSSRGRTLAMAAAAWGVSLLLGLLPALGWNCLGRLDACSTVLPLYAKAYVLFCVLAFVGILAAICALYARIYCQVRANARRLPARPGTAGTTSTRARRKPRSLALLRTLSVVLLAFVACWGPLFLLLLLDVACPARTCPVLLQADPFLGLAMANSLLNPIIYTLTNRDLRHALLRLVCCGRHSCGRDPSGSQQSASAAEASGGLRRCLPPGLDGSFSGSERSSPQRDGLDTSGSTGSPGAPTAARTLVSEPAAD
compound,measurement,value
NC(CNC(=O)c1cc2c(-c3ccccc3Cc3ccccc3)cccc2[nH]1)C(=O)O (stereo not shown) [Example 2],EC50,2400 nM
